Tests used:
Format in all cases: in vivo
crop plants = test: Mitigation of drought and chilling stress on crop plants (summary statement)
[1] = system: Cucumber plants cv. ‘Straight Eight’; test: Cucumber seedling chilling; set-up: key to New Growth Rating: 0 = No new growth; 1 = some new growth; 2 = new leaves; conditions: for New Growth Rating / Percent Leaf Area Affected: foliar spray 100 mg/liter, 300 ug/plant, 96 hours at 4° C., rated after 48 hours recovery
Description: In these studies, 3′-methyl-(S)-abscisic acid was compared with (S)-abscisic acid on cucumber seedlings for prevention of chilling damage. Cucumber plants cv. ‘Straight Eight’ were grown for two weeks at 25° C. and were size matched into groups of three plants. Each group was sprayed with water+0.05% non-ionic surfactant (control), 100 ppm 3′-methyl-(S)-abscisic acid and surfactant, or 100 ppm S-ABA and surfactant until wet, respectively. For the spray solutions, 3′-methyl-(S)-abscisic acid was dissolved in 0.5% by volume DMSO in water. Following the foliar treatment, plants were held for 48 hours at room temperature, then subjected to 4° C. for 96 hours, and then returned to 25° C. After the plants had been allowed to recover from the chilling treatments for 48 hours, the plants were rated for percent leaf area affected and new growth.

[2] = system: corn seed of a common inbred parental line; test: Corn plant emergence after seed treatment; conditions: for Additional delay in emergence in comparison with S-ABA: 80 μg/seed rate; for Relative potency of S-ABA, dose required to delay the median emergence time by two days: regression; for Delay in Median Emergence Time Compared to Control / Median Time to Emergence: 20.5° C.
Description: Corn seed of a common inbred parental line were treated using standard seed treatment equipment with water (control), 40 μg, 80 μg or 160 μg/seed S-ABA, 10 μg, 20 μg, 40 μg or 80 μg/seed 3′-methyl-(S)-abscisic acid, or 10 μg, 20 μg, 40 μg or 80 μg/seed 3′-propargyl-(S)-abscisic acid. Post treatment, the seeds were planted in 12×3×2″ plastic boxes containing one kilogram of sieved, pre-moistened field soil. Fifty seeds were planted in each box at three centimeter depth and two replicate boxes per treatment at 20.5° C. under constant illumination. Two replications of the experiment were incubated under constant light in a 20.5° C. growth chamber. Emergence counts were recorded almost daily until seedling emergence had ceased (42 days). Daily counts were converted to proportions of the final emergence to estimate the median emergence time for each box.

[3] = system: Tobacco plants cv. Xanthi-nc; test: Tobacco plants drought assay; conditions: for Percent of plants recovered 3 days after re-watering: re-watered after 18 days of water withdrawal
Description: Tobacco plants cv. Xanthi-nc were grown for six weeks at 25° C. and were size matched into groups of four. Each plant group was drench-treated with 10 mL of water containing 0.5% DMSO (control), 0.3 mg, 1.0 mg or 3.0 mg/plant 3′-methyl-(S)-abscisic acid, or 0.3 mg, 1.0 mg or 3.0 mg/plant S-ABA, respectively. The plants were kept in the greenhouse and not watered, simulating drought conditions. After 18 days of water withdrawal, the plants in all treatment groups wilted. At that point, all the plants were watered again. The number of plants that wilted during each day of water withdrawal and the number of plants that recovered following the re-watering were recorded.

SMILES	New Growth Rating [1]	Percent Leaf Area Affected [1] [%]	Additional delay in emergence in comparison with S-ABA [2] [calendar days]	Relative potency of S-ABA, dose required to delay the median emergence time by two days [2] [times]	Delay in Median Emergence Time Compared to Control ([2]; seed treatment 10 μg/seed) [days]	Median Time to Emergence ([2]; seed treatment 10 μg/seed) [days]	Delay in Median Emergence Time Compared to Control ([2]; seed treatment 20 μg/seed) [days]	Median Time to Emergence ([2]; seed treatment 20 μg/seed) [days]	Delay in Median Emergence Time Compared to Control ([2]; seed treatment 40 μg/seed) [days]	Median Time to Emergence ([2]; seed treatment 40 μg/seed) [days]	Delay in Median Emergence Time Compared to Control ([2]; seed treatment 80 μg/seed) [days]	Median Time to Emergence ([2]; seed treatment 80 μg/seed) [days]	Percent of non-wilted plans on days after drench treatment and drought initiation, Day 8 ([3]; 0.3 mg/plant drench) [%]	Percent of non-wilted plans on days after drench treatment and drought initiation, Day 10 ([3]; 0.3 mg/plant drench) [%]	Percent of non-wilted plans on days after drench treatment and drought initiation, Day 12 ([3]; 0.3 mg/plant drench) [%]	Percent of non-wilted plans on days after drench treatment and drought initiation, Day 14 ([3]; 0.3 mg/plant drench) [%]	Percent of non-wilted plans on days after drench treatment and drought initiation, Day 16 ([3]; 0.3 mg/plant drench) [%]	Percent of non-wilted plans on days after drench treatment and drought initiation, Day 18 ([3]; 0.3 mg/plant drench) [%]	Percent of plants recovered 3 days after re-watering ([3]; 0.3 mg/plant drench) [%]	Percent of non-wilted plans on days after drench treatment and drought initiation, Day 8 ([3]; 1 mg/plant drench) [%]	further results
CC1=C(C)[C@](O)(/C=C/C(C)=C\C(=O)O)C(C)(C)CC1=O [3′-methyl-(S)-ABA, (2Z,4E)-5-((S)-1-hydroxy-2,3,6,6-tetramethyl-4-oxocyclohex-2-en-1-yl)-3-methylpenta-2,4-dienoic acid]	2	16.67	5.6	2.2	4.9	9.7	7.9	12.7	11.1	16.0	13.8	18.6	100	100	83	33	0	0	0	100	Effectiveness relative to S-ABA when applied to crop plants to mitigate drought and chilling stress (crop plants): from about two to about ten times as effective as S-ABA; Mitigating chilling damage compared with S-ABA ([1]; 100 ppm foliar spray, chilling at 4° C.): more effective than S-ABA; Percent of non-wilted plans on days after drench treatment and drought initiation, Day 10 ([3]; 1 mg/plant drench): 100%; Percent of non-wilted plans on days after drench treatment and drought initiation, Day 12 ([3]; 1 mg/plant drench): 100%; Percent of non-wilted plans on days after drench treatment and drought initiation, Day 14 ([3]; 1 mg/plant drench): 83%; Percent of non-wilted plans on days after drench treatment and drought initiation, Day 16 ([3]; 1 mg/plant drench): 67%; Percent of non-wilted plans on days after drench treatment and drought initiation, Day 18 ([3]; 1 mg/plant drench): 0%; Percent of plants recovered 3 days after re-watering ([3]; 1 mg/plant drench): 33%; Percent of non-wilted plans on days after drench treatment and drought initiation, Day 8 ([3]; 3 mg/plant drench): 100%; Percent of non-wilted plans on days after drench treatment and drought initiation, Day 10 ([3]; 3 mg/plant drench): 100%; Percent of non-wilted plans on days after drench treatment and drought initiation, Day 12 ([3]; 3 mg/plant drench): 100%; Percent of non-wilted plans on days after drench treatment and drought initiation, Day 14 ([3]; 3 mg/plant drench): 100%; Percent of non-wilted plans on days after drench treatment and drought initiation, Day 16 ([3]; 3 mg/plant drench): 83%; Percent of non-wilted plans on days after drench treatment and drought initiation, Day 18 ([3]; 3 mg/plant drench): 0%; Percent of plants recovered 3 days after re-watering ([3]; 3 mg/plant drench): 83%; Percent of plants recovered 3 days after re-watering ([3]; 3 mg/plant drench, listed as 3′-methyl-(S)-abscisic acid): 83%; Drought tolerance compared to the untreated control or the highest amount (3.0 mg) of S-ABA ([3]; lowest amount (0.3 mg)): superior drought tolerance
C#CCC1=C(C)[C@](O)(/C=C/C(C)=C\C(=O)O)C(C)(C)CC1=O [3′-propargyl-(S)-ABA, (2Z,4E)-5-((S)-1-hydroxy-2,6,6-trimethyl-4-oxo-3-(prop-2-yn-1-yl)cyclohex-2-en-1-yl)-3-methylpenta-2,4-dienoic acid]	–	–	14.3	2.6	8.6	13.4	11.3	16.2	16.2	21.0	22.4	27.3	–	–	–	–	–	–	–	–	–
CC1=CC(=O)CC(C)(C)[C@@]1(O)/C=C/C(C)=C/C(=O)O [S-ABA, (S)-abscisic acid]	1	33.33	–	–	–	–	–	–	5.6	10.5	8.2	13.0	100	100	17	0	0	0	0	100	Delay in Median Emergence Time Compared to Control ([2]; seed treatment 160 μg/seed): 9.7 days; Median Time to Emergence ([2]; seed treatment 160 μg/seed): 14.6 days; Percent of non-wilted plans on days after drench treatment and drought initiation, Day 10 ([3]; 1 mg/plant drench): 100%; Percent of non-wilted plans on days after drench treatment and drought initiation, Day 12 ([3]; 1 mg/plant drench): 50%; Percent of non-wilted plans on days after drench treatment and drought initiation, Day 14 ([3]; 1 mg/plant drench): 0%; Percent of non-wilted plans on days after drench treatment and drought initiation, Day 16 ([3]; 1 mg/plant drench): 0%; Percent of non-wilted plans on days after drench treatment and drought initiation, Day 18 ([3]; 1 mg/plant drench): 0%; Percent of plants recovered 3 days after re-watering ([3]; 1 mg/plant drench): 0%; Percent of non-wilted plans on days after drench treatment and drought initiation, Day 8 ([3]; 3 mg/plant drench): 100%; Percent of non-wilted plans on days after drench treatment and drought initiation, Day 10 ([3]; 3 mg/plant drench): 100%; Percent of non-wilted plans on days after drench treatment and drought initiation, Day 12 ([3]; 3 mg/plant drench): 67%; Percent of non-wilted plans on days after drench treatment and drought initiation, Day 14 ([3]; 3 mg/plant drench): 0%; Percent of non-wilted plans on days after drench treatment and drought initiation, Day 16 ([3]; 3 mg/plant drench): 0%; Percent of non-wilted plans on days after drench treatment and drought initiation, Day 18 ([3]; 3 mg/plant drench): 0%; Percent of plants recovered 3 days after re-watering ([3]; 3 mg/plant drench): 0%; Plants recovered once they were watered ([3]; all S-ABA doses (0.3, 1.0, 3.0 mg/plant)): none

— patent publication US10314307B2, “(S)-abscisic acid derivatives for improving plant stress tolerance” (Valent BioSciences Corporation, priority 2015, dated 2019)
